From PubChem BioAssay (NCI)
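48-hour exposure; five concentrations; linearly interpolated endpoints. TGI marks complete inhibition of growth.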

Columns and labels:
Test in all cases: NCI tumour cell line growth inhibition, 48 h
SNB-75 CNS = tested on: SNB-75 CNS
A549 NSCLC = tested on: A549 NSCLC
SW-620 colon = tested on: SW-620 colon
K-562 leukemia = tested on: K-562 leukemia
CAKI-1 renal = tested on: CAKI-1 renal
SR leukemia = tested on: SR leukemia
SF-268 CNS = tested on: SF-268 CNS
SK-MEL-5 melanoma = tested on: SK-MEL-5 melanoma
HL-60(TB) leukemia = tested on: HL-60(TB) leukemia
NCI-H522 lung = tested on: NCI-H522 lung
A498 renal = tested on: A498 renal
HT29 colon = tested on: HT29 colon
UACC-257 melanoma = tested on: UACC-257 melanoma
786-0 renal = tested on: 786-0 renal
RXF 393 renal = tested on: RXF 393 renal
RPMI-8226 leukemia = tested on: RPMI-8226 leukemia
SK-MEL-2 melanoma = tested on: SK-MEL-2 melanoma
NCI-H23 lung = tested on: NCI-H23 lung
IGROV1 ovarian = tested on: IGROV1 ovarian
HS 578T breast = tested on: HS 578T breast
MDA-MB-435 = tested on: MDA-MB-435
HCT-15 colon = tested on: HCT-15 colon
UACC-62 melanoma = tested on: UACC-62 melanoma
SN12C renal = tested on: SN12C renal
DU-145 prostate = tested on: DU-145 prostate
NCI-H460 lung = tested on: NCI-H460 lung
SNB-19 CNS = tested on: SNB-19 CNS
NCI/ADR-RES ovarian = tested on: NCI/ADR-RES ovarian
OVCAR-4 ovarian = tested on: OVCAR-4 ovarian
LOX IMVI melanoma = tested on: LOX IMVI melanoma
MCF7 breast = tested on: MCF7 breast
OVCAR-8 ovarian = tested on: OVCAR-8 ovarian
SF-539 CNS = tested on: SF-539 CNS
OVCAR-5 ovarian = tested on: OVCAR-5 ovarian
KM12 colon = tested on: KM12 colon
SK-OV-3 ovarian = tested on: SK-OV-3 ovarian
HOP-92 NSCLC = tested on: HOP-92 NSCLC
OVCAR-3 ovarian = tested on: OVCAR-3 ovarian
TK-10 renal = tested on: TK-10 renal
ACHN renal = tested on: ACHN renal
COLO 205 colon = tested on: COLO 205 colon
SF-295 CNS = tested on: SF-295 CNS
HOP-62 NSCLC = tested on: HOP-62 NSCLC
T-47D breast = tested on: T-47D breast
U251 CNS = tested on: U251 CNS
M14 melanoma = tested on: M14 melanoma
MALME-3M melanoma = tested on: MALME-3M melanoma
NCI-H226 lung = tested on: NCI-H226 lung
HCC-2998 colon = tested on: HCC-2998 colon
HCT-116 colon = tested on: HCT-116 colon
PC-3 prostate = tested on: PC-3 prostate
UO-31 renal = tested on: UO-31 renal
EKVX NSCLC = tested on: EKVX NSCLC
SK-MEL-28 melanoma = tested on: SK-MEL-28 melanoma
MDA-N = tested on: MDA-N
MOLT-4 leukemia = tested on: MOLT-4 leukemia
BT-549 breast = tested on: BT-549 breast
MDA-MB-231 breast = tested on: MDA-MB-231 breast
CCRF-CEM leukemia = tested on: CCRF-CEM leukemia

Measured: TGI

CCOP(=O)(OCC)C1(O)CC(n2cc(C)c(=O)[nH]c2=O)OC1CO (stereo not given)
not listed: MOLT-4 leukemia | BT-549 breast | MDA-MB-231 breast | CCRF-CEM leukemia
> 100 µM: all other assays above

CSCCCNC(=O)c1csc(-c2csc(CCNC(=O)CNC(=O)CNC(=O)CNC(=O)OC(C)(C)C)n2)n1
not listed: SR leukemia | HL-60(TB) leukemia | RPMI-8226 leukemia | T-47D breast
> 100 µM: all other assays above
